ChEMBL document CHEMBL3430912, “GSK Tres Cantos Anti-Kinetoplastid Screening (TCAKS) Data”

How the values were obtained:
[1] = tested on: Leishmania donovani; assay: (§1) GSK_TCAKS: pIC50 Leishmania donovani Imaging: Amastigotes/Macrophages. Assay plates (384-well) were prepared by adding 250nL of compound to each well. For single shot assay, the final compound concentration was 5 uM. […] Automated image analysis was performed with a script developed on Acapella High Content Imaging and Analysis Software (PerkinElmer). Output: Average number of amastigotes per macrophage cell were reported for each well.; format: functional, organism-based, Homo sapiens; details: THP-1
[2] = tested on: Trypanosoma cruzi; assay: GSK_TCAKS: pIC50 Trypanosoma cruzi viability assay using beta-GAL activity. This assay was run at single shot at 5uM compound concentration per well. The biological reagents consisted of NIH-3T3 host cells and trypomastigotes parasitic cells; both cell types were set to a 3.3 * 10^5 cells/mL dilution in assay DMEM by means of a CASY cell counter device using a 60um capillary. 6 uL of the mixture were dispensed per well (about 1 * 10^3 host-cells and 1 * 10^3 parasites) with a Multidrop Combi dispenser. […] In all wells, the percentage of DMSO never exceeded 0.5%. Plates incubated for four days at 37C, 5% CO2. The substrate used for the assay fluorescence intensity (FLINT) readout was resorufin-beta-D-galactopiranoside (Sigma-Aldrich) at 5uM per well. It was diluted in PBS supplemented with the soft detergent Igepal (Fluka).; format: functional, organism-based, Mus musculus; details: Tulahuen, NIH3T3
[3] = molecular target: Sterol 14-alpha demethylase (Trypanosoma cruzi (strain CL Brener), UniProt Q7Z1V1); assay: GSK_TCAKS: pIC50 CYP51 from Trypanosoma cruzi.; format: functional
Chain of Sterol 14-alpha demethylase (Q7Z1V1 whole entry): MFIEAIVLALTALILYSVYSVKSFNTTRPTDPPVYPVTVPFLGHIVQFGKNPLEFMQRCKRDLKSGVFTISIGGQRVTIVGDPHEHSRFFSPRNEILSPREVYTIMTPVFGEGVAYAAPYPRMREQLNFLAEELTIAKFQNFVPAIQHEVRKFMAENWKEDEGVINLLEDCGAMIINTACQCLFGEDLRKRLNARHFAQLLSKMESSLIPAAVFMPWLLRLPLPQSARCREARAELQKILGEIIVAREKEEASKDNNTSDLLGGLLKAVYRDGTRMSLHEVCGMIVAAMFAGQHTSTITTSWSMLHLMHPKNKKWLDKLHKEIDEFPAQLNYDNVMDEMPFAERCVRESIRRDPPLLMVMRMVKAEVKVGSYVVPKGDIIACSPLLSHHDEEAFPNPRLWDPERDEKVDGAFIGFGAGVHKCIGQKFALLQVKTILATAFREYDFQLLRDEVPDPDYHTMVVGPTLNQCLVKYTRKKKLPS

[4] = tested on: Leishmania donovani; assay: as §1, with “THP-1 Host Macrophages.” for “Amastigotes/Macrophages.”, “THP-1” for “Average number of amastigotes per macrophage”, “cell count” for “cell”; format: functional, organism-based, Homo sapiens
[5] = tested on: Trypanosoma brucei brucei; assay: GSK_TCAKS: pIC50 Trypanosoma brucei viability assay using fluorescence intensity. Assay plates (1536-well) were prepared by dispensing 25nL of compound solution per well using an Echo acoustic dispenser (Labcyte).; format: functional, organism-based; details: Lister 427, 2 h
[6] = tested on: Trypanosoma brucei brucei; assay: GSK_TCAKS: pIC50 Trypanosoma brucei viability assay using luminiscence. Assay plates (1536-well) were prepared. T. brucei cultures were harvested and counted in a CASY cell counter. A parasite suspension was prepared at a final concentration of 5 * 10^4 cells/mL in complete HMI9 medium and 6uL was dispensed to all wells containing compounds using a Multidrop Combi dispenser. 6uL of HMI9 media with 0.4% DMSO were dispensed to control columns. Plates were incubated for 24 h at 37C, 5% CO2 then tempered for 10 min at room temperature. ATP content was quantified by adding 4 uL of CellTiter-Glo Reagent (Promega) according to the manufacturer's instructions. Luminescence was measured using a ViewLux.; format: functional, organism-based; details: Lister 427, CASY
[7] = tested on: Trypanosoma cruzi; assay: (§2) GSK_TCAKS: pIC50 H2C9 Imaging: H9c2 Host Cardiomyocytes. […] Cells were then washed once with PBS before infection. T. cruzi trypomastigotes, collected at days 5 to 8 after infection from LLC-MK2 parasite infected cultures, were allowed to swim out for 4h at 37C from a centrifuged pellet (2,500 rpm/10 min/room temperature). Trypomastigotes were then collected and counted in a CASY Cell Counter. Trypomastigotes, in supplemented DMEM, were added to H9c2 cultures in a multiplicity of infection of 1 and incubated for 18 h. Cells were washed once with PBS before incubation of the infected H9c2 monolayer with trypsin (Life-Technologies) to detach cells from the flask. Cells were counted in a CASY Cell Counter using a 150 um capillary and their density set at 5 * 10^4 cells per mL in supplemented assay DMEM. Infected H9c2 were dispensed into 384-well poly-lysine coated assay plates at 50uL per well using a Multidrop Combi dispenser. After seeding them, the plates were incubated at 37C, 5% CO2 for 72h. Cultures were then fixed and stained by addition of 50 uL of a solution containing 8% formaldehyde and 4 uM DRAQ5 DNA dye (BioStatus, UK) per well. […] Five images were collected per well for reliable statistical analysis. Automated image analysis was performed with a script developed on Acapella High Content Imaging and Analysis Software (PerkinElmer). Output: Number of H9c2 Host Cardiomyocytes nuclei to determine drug-related cytotoxicity.; format: functional, organism-based, Rattus norvegicus; details: H9c2, 4 h
[8] = tested on: Trypanosoma cruzi; assay: as §2, with “Trypanosoma cruzi” for “H2C9”, “Amastigotes/Cell.” for “H9c2 Host Cardiomyocytes.”, “number” for “Number”, “amastigotes per cell as infection level measurement.” for “H9c2 Host Cardiomyocytes nuclei to determine drug-related cytotoxicity.”; format: functional, organism-based, Rattus norvegicus; details: H9c2, 4 h
[9] = GSK_TCAKS: pIC50 HepG2 human cell line viability assay using luminiscence. […] Seeding density was checked to ensure that new mono-layers were not more than 50% confluent at the time of harvesting. Cell suspension was added to 500 mL of the same medium at a final density of 1.2 * 10^5 cells/mL. This cell suspension was dispensed (25 uL, 3000 cells per well) into 384-well clear-bottom plates using a Multidrop Combi dispenser. Prior to addition of the cell suspension, the screening compounds (250 nL) were pre-dispensed into the plates with an Echo liquid handler. Plates were incubated for 48 h at 37C, 5% CO2. After incubation, plates equilibrated at room temperature for 30 min before proceeding to develop the luminescent signal. The signal developer, CellTiter-Glo Reagent, was allowed to equilibrate at room temperature for 30 min and added to the plates (25uL per well) using a Multidrop Combi dispenser. Plates were left for 10 min at room temperature for stabilization and then read using a ViewLux.; format: toxicity, cell-based
[10] = tested on: Leishmania donovani; assay: GSK_TCAKS: pIC50 Leishmania donovani viability assay using fluorescence intensity. Assay plates (1536-well) were prepared by adding 30nL per well of compound. For single shot assay, the final compound concentration was 5uM. […] Briefly, eGFP LdBOB axenic amastigotes were harvested, fixed and counted in a CASY cell counter (Roche-Applied Science). A final concentration of 1.5 * 10^5 cells per well were prepared in amastigote media containing 500 U/mL penicillin/streptomycin (Invitrogen) and 6uL was dispensed to each experimental well using a Multidrop Combi dispenser (Thermo Scientific). 6uL of assay media was dispensed to control columns used as reference for 100% compound response. Following incubation for 72 h at 37C, 5% CO2, 2 uL of resazurin was added to each well at a final concentration of 0.5 mM in phosphate buffered saline (PBS) with IGEPAL (Sigma-Aldrich), 0.05% (v/v).; format: functional, organism-based
[11] = tested on: Leishmania donovani; assay: as §1, with “Infected Macrophages.” for “Amastigotes/Macrophages.”, “Percent” for “Average number”, “infected” for “amastigotes per”, “cells” for “cell”; format: functional, organism-based, Homo sapiens; details: THP-1
[12] = tested on: Trypanosoma cruzi; assay: as §2, with “Trypanosoma cruzi” for “H2C9”, “Infected Cells.” for “H9c2 Host Cardiomyocytes.”, “percentage” for “Number”, “infected cells per well as a second infection marker.” for “H9c2 Host Cardiomyocytes nuclei to determine drug-related cytotoxicity.”; format: functional, organism-based, Rattus norvegicus; details: H9c2, 4 h

| SMILES | IC50 [1] [µM] | IC50 [2] [µM] | IC50 [3] [µM] | IC50 [4] [µM] | IC50 [5] [µM] | IC50 [6] [µM] | IC50 [7] [µM] | IC50 [8] [µM] | IC50 at 48 h [9] [µM] | IC50 [10] [µM] | IC50 [11] [µM] | IC50 [12] [µM] |
| --- | --- | --- | --- | --- | --- | --- | --- | --- | --- | --- | --- | --- |
| O=C(CSc1nnc(-c2ccc3c(c2)OCO3)o1)N(Cc1ccco1)CC(F)(F)F | 3.16 | 10 | 25.1 | > 50.1 | > 39.8 | > 39.8 | > 50.1 | 2.51 | > 100 | 15.8 | 7.94 | 3.16 |
| N#Cc1ccccc1S(=O)(=O)N1CCN(C(=O)CNC(=O)c2ccc3c(c2)OCO3)CC1 | 1.58 | 15.8 | 79.4 | > 50.1 | > 39.8 | > 39.8 | > 50.1 | 0.631 | > 100 | 0.631 | 5.01 | 1 |
| COc1ccc(NC(=O)c2ccc(NC(=O)CN(c3ccccc3C)S(C)(=O)=O)cc2)cc1 | 7.94 | 31.6 | 6.31 | > 50.1 | 0.2 | 0.794 | 25.1 | 20 | 39.8 | > 50.1 | > 50.1 | 25.1 |
| COc1ccc(S(=O)(=O)Nc2ccc(C(=O)Nc3nc(-c4ccccn4)cs3)cc2)cc1 | 0.158 | 0.891 | 0.398 | 10 | 0.794 | 0.631 | 6.31 | 0.631 | 63.1 | 1 | 0.398 | 0.794 |
